According to ChEMBL document CHEMBL1128846, “Synthesis and pharmacological activity of conformationally restricted, acetylenic retinoid analogs” (Bioorg Med Chem Lett, 1995):

Legend:
Mus musculus = experiment: In vivo inhibition of TPA-induced ornithine decarboxylase (ODC) activity in hairless mouse skin; format: functional
[1] = molecular target: T1, Retinoic acid receptor beta (Homo sapiens, UniProt P10826); experiment: Transcriptional activation of retinoic acid receptor RAR beta; not active
T1 sequence (P10826 whole entry): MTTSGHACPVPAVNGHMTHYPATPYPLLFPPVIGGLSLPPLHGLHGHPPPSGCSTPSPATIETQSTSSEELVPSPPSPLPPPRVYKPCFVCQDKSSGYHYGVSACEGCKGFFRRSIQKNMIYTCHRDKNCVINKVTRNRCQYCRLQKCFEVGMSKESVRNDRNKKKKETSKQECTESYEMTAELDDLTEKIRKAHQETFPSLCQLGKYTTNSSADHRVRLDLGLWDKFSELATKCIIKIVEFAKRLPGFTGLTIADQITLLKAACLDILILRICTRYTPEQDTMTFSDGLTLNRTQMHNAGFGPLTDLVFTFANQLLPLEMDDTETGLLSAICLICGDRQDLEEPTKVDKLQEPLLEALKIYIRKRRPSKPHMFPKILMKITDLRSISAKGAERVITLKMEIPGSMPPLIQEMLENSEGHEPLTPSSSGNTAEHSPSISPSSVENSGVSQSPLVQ

[2] = molecular target: T2, Retinoic acid receptor alpha (Homo sapiens, UniProt P10276); experiment: Transcriptional activation of retinoic acid receptor RAR alpha; not active
T2 sequence (P10276 whole entry): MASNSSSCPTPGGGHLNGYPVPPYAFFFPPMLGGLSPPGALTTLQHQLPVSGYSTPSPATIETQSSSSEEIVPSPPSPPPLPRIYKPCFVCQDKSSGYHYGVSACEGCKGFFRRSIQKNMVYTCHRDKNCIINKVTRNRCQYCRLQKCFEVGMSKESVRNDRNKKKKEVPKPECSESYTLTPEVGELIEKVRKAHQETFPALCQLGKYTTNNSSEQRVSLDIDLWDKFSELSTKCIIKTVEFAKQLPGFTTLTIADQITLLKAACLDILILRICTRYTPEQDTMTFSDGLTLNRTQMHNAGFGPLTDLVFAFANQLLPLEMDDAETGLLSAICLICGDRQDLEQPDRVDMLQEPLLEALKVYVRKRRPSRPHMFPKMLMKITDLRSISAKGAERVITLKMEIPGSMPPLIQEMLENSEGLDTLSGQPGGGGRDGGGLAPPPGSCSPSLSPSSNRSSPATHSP

[3] = molecular target: T3, Retinoic acid receptor gamma (Homo sapiens, UniProt P13631); experiment: Transcriptional activation of retinoic acid receptor RAR gamma; not active
T3 sequence (P13631 whole entry): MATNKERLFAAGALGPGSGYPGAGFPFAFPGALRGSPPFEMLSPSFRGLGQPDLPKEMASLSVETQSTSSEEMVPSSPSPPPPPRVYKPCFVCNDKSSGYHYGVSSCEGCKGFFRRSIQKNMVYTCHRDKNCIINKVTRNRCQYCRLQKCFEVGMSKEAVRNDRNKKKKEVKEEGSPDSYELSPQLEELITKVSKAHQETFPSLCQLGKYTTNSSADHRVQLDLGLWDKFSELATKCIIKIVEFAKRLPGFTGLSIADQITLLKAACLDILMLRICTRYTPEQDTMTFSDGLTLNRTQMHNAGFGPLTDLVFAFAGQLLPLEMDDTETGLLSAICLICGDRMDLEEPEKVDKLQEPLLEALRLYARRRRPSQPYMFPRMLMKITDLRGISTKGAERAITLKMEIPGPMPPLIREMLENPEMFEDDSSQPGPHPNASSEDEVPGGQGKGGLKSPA

[4] = molecular target: T4, Retinoic acid receptor RXR-alpha (Homo sapiens, UniProt P19793); experiment: Transcriptional activation of retinoid X receptor RXR alpha; not active
T4 sequence (P19793 whole entry): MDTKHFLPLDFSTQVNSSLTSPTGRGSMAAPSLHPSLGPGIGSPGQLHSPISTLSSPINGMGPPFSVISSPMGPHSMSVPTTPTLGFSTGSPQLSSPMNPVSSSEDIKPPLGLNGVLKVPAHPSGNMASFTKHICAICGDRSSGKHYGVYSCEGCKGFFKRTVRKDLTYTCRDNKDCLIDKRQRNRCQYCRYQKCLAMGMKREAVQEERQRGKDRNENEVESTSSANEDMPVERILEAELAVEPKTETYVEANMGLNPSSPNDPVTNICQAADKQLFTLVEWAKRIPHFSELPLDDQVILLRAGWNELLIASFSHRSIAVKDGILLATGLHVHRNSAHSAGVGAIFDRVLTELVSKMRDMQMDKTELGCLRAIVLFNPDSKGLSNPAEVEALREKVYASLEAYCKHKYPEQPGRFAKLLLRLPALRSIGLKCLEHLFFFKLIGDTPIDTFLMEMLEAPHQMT

[5] = molecular target: T1, Retinoic acid receptor beta; experiment: (§1) Transcriptional activation of retinoic acid receptor RAR beta
[6] = molecular target: T3, Retinoic acid receptor gamma; experiment: Transcriptional activation of retinoic acid receptor RAR gamma
[7] = molecular target: T1, Retinoic acid receptor beta; experiment: as §1; remark: listed apart in the source
[8] = molecular target: T2, Retinoic acid receptor alpha; experiment: Transcriptional activation of retinoic acid receptor RAR alpha

EC50 [2] [µM]	EC50 [4] [µM]	SMILES	IC80 (Mus musculus) [nmol]	other results
		CCOC(=O)c1ccc(C#C/C=C/C2=C(C)CCCC2(C)C)s1	30	
> 10	> 10	CC1=C(/C=C/C#Cc2ccccc2C(=O)O)C(C)(C)CCC1	> 1000	EC50 [1]: > 10 µM; EC50 [3]: > 10 µM
		CCOC(=O)c1ccccc1C#C/C=C/C1=C(C)CCCC1(C)C	> 1000	
> 10	> 10	CC1=C(/C=C/C#Cc2cccc(C(=O)O)c2)C(C)(C)CCC1	890	EC50 [1]: > 10 µM; EC50 [3]: > 10 µM
> 10		CC1=C(/C=C/C#Cc2ccc(C(=O)O)cn2)C(C)(C)CCC1	14.8	EC50 [5]: > 0.005 µM; EC50 [6]: > 0.015 µM
		CCOC(=O)c1ccc(C#C/C=C/C2=C(C)CCCC2(C)C)o1	> 300	
		CCOC(=O)c1ccc2cc(C#CC3=C(C)CCCC3(C)C)ccc2c1	131	
		CCOC(=O)c1ccc(C#C/C=C/C2=C(C)CCCC2(C)C)nc1	5.3	
		CCOC(=O)c1cccc(C#C/C=C/C2=C(C)CCCC2(C)C)c1	> 1000	
> 10	> 10	CC1=C(C#Cc2ccc3cc(C(=O)O)ccc3c2)C(C)(C)CCC1	215	EC50 [5]: 0.355 µM; EC50 [7]: 0.93 µM
	10	CC1=C(/C=C/C#Cc2ccc(C(=O)O)cc2)C(C)(C)CCC1	0.46	EC50 [5]: 0.002 µM; EC50 [8]: 0.598 µM; EC50 [6]: 0.01 µM
	10	C/C(=C\c1ccc(C(=O)O)cc1)c1ccc2c(c1)C(C)(C)CCC2(C)C		
		CCOC(=O)c1ccc(C#C/C=C/C2=C(C)CCCC2(C)C)cc1	1.3	
